Data from PMC11851430, “Workflow for E3 Ligase Ligand Validation for PROTAC Development” (ACS Chemical Biology, 2025).

Columns and labels:
Assay in all cases: DSF assay
Assay type in all cases: binding
Conditions in all cases: 20 µM compound
ABL1A = target: T1, ABL1A (Homo sapiens, UniProt P00519)
T1 construct: purchased in-house DSF panel (SGC-style construct names; the trailing A/B is a construct suffix)
T1 sequence (P00519 229-512): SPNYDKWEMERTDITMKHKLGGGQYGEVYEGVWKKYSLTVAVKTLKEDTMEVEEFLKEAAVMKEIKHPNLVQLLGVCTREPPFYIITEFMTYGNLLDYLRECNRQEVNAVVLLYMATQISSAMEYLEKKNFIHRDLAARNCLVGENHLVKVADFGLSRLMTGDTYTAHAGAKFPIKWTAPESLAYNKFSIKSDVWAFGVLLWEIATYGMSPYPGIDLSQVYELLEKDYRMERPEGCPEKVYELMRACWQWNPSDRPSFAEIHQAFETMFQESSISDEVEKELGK

AKT3A = target: T2, AKT3A (Homo sapiens, UniProt Q9Y243)
T2 construct: purchased in-house DSF panel (SGC-style construct names; the trailing A/B is a construct suffix)

CAMK2BA = target: T3, CAMK2BA (Homo sapiens, UniProt Q13554)
T3 construct: purchased in-house DSF panel (SGC-style construct names; the trailing A/B is a construct suffix)

CASKA = target: T4, CASKA (Homo sapiens, UniProt O14936)
T4 construct: purchased in-house DSF panel (SGC-style construct names; the trailing A/B is a construct suffix)
T4 sequence (O14936 1-337): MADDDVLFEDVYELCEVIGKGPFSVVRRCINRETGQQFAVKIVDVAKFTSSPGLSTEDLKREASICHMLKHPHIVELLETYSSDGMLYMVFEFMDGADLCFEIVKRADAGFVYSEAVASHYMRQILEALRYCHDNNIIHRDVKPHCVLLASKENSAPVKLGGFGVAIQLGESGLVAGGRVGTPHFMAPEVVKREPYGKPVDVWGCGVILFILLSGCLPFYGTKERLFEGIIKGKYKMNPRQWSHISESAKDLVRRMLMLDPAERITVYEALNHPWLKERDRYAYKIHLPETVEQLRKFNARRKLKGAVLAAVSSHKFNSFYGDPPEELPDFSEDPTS

CDKL1A = target: T5, CDKL1A (Homo sapiens, UniProt Q00532)
T5 construct: purchased in-house DSF panel (SGC-style construct names; the trailing A/B is a construct suffix)

CLK1 = target: T6, CLK1 (Homo sapiens, UniProt P49759)
T6 construct: purchased in-house DSF panel (SGC-style construct names; the trailing A/B is a construct suffix)

DAPK1A = target: T7, DAPK1A (Homo sapiens, UniProt P53355)
T7 construct: purchased in-house DSF panel (SGC-style construct names; the trailing A/B is a construct suffix)

EPHB3A = target: T8, EPHB3A (Homo sapiens, UniProt P54753)
T8 construct: purchased in-house DSF panel (SGC-style construct names; the trailing A/B is a construct suffix)
T8 sequence (P54753 633-896): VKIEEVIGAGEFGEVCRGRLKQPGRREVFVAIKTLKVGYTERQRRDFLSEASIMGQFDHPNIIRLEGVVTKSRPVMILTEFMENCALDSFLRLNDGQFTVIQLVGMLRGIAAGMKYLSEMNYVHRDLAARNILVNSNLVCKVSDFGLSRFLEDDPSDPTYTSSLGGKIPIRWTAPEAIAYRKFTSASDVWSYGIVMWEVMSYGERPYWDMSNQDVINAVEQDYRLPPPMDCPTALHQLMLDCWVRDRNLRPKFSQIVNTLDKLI

GSK3BB = target: T9, GSK3BB (Homo sapiens, UniProt P49841)
T9 construct: purchased in-house DSF panel (SGC-style construct names; the trailing A/B is a construct suffix)

MAPK10A = target: T10, MAPK10A (Homo sapiens, UniProt P53779)
T10 construct: purchased in-house DSF panel (SGC-style construct names; the trailing A/B is a construct suffix)

NEK7A = target: T11, NEK7A (Homo sapiens, UniProt Q8TDX7)
T11 construct: purchased in-house DSF panel (SGC-style construct names; the trailing A/B is a construct suffix)

SRCA = target: T12, SRCA (Homo sapiens, UniProt P12931)
T12 construct: purchased in-house DSF panel (SGC-style construct names; the trailing A/B is a construct suffix)

STK17A = target: T13, STK17A (Homo sapiens, UniProt Q9UEE5)
T13 construct: purchased in-house DSF panel (SGC-style construct names; the trailing A/B is a construct suffix)
T13 sequence (Q9UEE5 61-321): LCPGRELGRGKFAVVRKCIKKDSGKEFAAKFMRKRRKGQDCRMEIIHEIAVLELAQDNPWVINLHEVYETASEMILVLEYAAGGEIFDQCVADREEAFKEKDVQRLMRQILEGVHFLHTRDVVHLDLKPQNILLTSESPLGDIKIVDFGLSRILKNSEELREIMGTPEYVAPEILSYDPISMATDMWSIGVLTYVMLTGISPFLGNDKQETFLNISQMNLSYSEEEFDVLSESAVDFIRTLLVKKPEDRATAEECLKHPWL

STK17B = target: T14, STK17B (Homo sapiens, UniProt O94768)
T14 construct: purchased in-house DSF panel (SGC-style construct names; the trailing A/B is a construct suffix)
T14 sequence (O94768 25-329): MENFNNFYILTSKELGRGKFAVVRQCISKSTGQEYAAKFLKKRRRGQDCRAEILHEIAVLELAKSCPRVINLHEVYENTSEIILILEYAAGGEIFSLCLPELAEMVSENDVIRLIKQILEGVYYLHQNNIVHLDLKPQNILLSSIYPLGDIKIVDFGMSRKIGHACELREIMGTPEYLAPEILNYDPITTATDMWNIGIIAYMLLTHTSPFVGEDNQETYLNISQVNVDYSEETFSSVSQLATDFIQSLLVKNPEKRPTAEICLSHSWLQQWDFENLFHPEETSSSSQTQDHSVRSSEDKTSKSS

STK39A = target: T15, STK39A (Homo sapiens, UniProt Q9UEW8)
T15 construct: purchased in-house DSF panel (SGC-style construct names; the trailing A/B is a construct suffix)

TOPKA = target: T16, TOPKA (Homo sapiens, UniProt Q96KB5)
T16 construct: purchased in-house DSF panel (SGC-style construct names; the trailing A/B is a construct suffix)
T16 sequence (Q96KB5 32-322): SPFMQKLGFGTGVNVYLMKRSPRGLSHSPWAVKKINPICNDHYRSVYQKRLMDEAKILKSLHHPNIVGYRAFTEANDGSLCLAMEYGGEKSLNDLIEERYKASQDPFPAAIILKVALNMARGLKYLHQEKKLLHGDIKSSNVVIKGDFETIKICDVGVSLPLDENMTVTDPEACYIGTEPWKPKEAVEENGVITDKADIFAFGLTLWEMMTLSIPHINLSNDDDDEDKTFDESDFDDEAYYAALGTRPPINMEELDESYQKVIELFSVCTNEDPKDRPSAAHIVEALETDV

TTK1A = target: T17, TTK1A (Homo sapiens, UniProt P33981)
T17 construct: purchased in-house DSF panel (SGC-style construct names; the trailing A/B is a construct suffix)
T17 sequence (P33981 519-808): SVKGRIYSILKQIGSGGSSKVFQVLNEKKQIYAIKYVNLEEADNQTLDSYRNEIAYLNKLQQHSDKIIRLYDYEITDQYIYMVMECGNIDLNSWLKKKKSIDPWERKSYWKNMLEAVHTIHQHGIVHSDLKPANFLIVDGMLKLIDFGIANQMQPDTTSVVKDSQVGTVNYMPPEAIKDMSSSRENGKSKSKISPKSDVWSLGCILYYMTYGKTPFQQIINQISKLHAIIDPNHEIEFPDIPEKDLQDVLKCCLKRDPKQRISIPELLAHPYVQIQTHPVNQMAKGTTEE

T10 sequence (P53779 whole entry): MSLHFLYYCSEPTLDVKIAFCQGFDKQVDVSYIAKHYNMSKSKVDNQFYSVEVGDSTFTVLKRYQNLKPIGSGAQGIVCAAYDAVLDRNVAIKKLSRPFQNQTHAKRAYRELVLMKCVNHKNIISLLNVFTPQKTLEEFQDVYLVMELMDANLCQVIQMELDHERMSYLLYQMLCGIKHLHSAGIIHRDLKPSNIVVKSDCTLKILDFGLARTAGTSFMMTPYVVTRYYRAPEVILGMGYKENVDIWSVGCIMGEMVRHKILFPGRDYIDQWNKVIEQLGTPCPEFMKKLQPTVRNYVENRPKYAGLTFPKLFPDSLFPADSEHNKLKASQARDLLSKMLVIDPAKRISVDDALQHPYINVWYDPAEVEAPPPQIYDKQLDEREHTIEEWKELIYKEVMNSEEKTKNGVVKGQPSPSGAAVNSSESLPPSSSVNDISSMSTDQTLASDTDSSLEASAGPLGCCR
T3 sequence (Q13554 11-303): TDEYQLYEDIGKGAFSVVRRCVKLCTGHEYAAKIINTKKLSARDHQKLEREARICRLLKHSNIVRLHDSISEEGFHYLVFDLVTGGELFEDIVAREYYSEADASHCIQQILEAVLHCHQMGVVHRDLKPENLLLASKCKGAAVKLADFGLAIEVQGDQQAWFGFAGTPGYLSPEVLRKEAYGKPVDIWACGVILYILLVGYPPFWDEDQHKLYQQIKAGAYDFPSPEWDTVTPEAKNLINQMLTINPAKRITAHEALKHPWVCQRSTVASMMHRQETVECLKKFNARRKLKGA
T2 sequence (Q9Y243 141-479): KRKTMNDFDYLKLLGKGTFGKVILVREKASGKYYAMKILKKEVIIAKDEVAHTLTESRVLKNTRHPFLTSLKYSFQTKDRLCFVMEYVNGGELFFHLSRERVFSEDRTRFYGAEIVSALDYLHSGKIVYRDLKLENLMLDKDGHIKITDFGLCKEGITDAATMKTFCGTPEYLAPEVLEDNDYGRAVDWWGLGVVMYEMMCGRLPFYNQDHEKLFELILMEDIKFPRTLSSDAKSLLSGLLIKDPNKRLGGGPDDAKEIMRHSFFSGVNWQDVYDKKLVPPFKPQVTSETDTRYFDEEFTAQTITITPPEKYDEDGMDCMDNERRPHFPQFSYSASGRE
T12 sequence (P12931 254-536): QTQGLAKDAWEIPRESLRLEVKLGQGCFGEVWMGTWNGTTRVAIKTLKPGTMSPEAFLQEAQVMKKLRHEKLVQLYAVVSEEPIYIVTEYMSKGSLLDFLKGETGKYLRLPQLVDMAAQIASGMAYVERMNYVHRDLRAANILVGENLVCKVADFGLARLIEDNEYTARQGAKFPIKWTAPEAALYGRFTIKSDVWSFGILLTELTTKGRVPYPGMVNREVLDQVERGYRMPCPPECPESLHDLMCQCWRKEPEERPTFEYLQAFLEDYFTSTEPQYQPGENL
T6 sequence (P49759 148-484): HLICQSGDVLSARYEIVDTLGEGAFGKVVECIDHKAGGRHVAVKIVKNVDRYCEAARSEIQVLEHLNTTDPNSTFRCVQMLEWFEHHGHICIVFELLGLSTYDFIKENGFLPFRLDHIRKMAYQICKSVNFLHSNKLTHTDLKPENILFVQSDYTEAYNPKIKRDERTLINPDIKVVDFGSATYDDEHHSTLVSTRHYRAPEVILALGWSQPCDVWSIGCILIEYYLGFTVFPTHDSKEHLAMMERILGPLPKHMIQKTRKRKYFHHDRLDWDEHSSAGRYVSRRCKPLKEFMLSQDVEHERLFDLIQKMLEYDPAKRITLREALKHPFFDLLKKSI
T7 sequence (P53355 1-285): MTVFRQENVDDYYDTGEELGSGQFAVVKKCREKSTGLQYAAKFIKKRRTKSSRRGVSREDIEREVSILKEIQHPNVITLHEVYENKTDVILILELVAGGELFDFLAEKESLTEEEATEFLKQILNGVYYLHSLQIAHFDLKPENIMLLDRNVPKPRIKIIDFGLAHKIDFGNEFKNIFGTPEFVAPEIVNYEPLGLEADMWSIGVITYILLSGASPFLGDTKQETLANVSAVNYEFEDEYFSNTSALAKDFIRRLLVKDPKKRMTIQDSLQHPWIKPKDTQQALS
T5 sequence (Q00532 1-303): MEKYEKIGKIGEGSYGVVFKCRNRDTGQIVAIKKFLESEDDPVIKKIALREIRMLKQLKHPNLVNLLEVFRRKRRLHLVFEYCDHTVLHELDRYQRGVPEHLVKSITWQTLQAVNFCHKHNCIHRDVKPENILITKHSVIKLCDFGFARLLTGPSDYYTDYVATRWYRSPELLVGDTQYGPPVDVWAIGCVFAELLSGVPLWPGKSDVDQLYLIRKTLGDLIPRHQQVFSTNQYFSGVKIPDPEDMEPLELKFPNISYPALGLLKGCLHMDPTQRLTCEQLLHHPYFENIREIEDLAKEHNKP
T11 sequence (Q8TDX7 34-299): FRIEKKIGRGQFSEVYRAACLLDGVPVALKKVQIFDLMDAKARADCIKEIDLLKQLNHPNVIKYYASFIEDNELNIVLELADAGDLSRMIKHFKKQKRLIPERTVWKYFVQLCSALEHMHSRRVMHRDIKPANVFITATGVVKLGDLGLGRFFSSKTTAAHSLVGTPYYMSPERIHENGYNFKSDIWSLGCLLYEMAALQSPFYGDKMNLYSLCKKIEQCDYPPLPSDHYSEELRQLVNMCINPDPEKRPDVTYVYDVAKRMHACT
T9 sequence (P49841 35-386): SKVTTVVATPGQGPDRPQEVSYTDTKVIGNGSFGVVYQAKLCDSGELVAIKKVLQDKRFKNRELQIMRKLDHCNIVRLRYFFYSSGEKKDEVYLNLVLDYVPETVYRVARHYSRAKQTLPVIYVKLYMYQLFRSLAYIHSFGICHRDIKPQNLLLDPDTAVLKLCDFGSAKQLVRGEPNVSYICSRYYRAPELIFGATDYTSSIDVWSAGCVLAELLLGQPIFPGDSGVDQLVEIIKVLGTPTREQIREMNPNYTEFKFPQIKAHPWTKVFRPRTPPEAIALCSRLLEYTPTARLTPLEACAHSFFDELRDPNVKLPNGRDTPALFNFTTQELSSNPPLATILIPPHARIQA

SMILES | ΔTm at 20 µM (ABL1A) [°C] | ΔTm at 20 µM (AKT3A) [°C] | ΔTm at 20 µM (CAMK2BA) [°C] | ΔTm at 20 µM (CASKA) [°C] | ΔTm at 20 µM (CDKL1A) [°C] | ΔTm at 20 µM (CLK1) [°C] | ΔTm at 20 µM (DAPK1A) [°C] | ΔTm at 20 µM (EPHB3A) [°C] | ΔTm at 20 µM (GSK3BB) [°C] | ΔTm at 20 µM (MAPK10A) [°C] | ΔTm at 20 µM (NEK7A) [°C] | ΔTm at 20 µM (SRCA) [°C] | ΔTm at 20 µM (STK17A) [°C] | ΔTm at 20 µM (STK17B) [°C] | ΔTm at 20 µM (STK39A) [°C] | ΔTm at 20 µM (TOPKA) [°C] | ΔTm at 20 µM (TTK1A) [°C]
CCOC(=O)c1cc(Nc2cc(C3CC3)[nH]n2)nc(Nc2ccc(CC#N)cc2)n1 [compound 5] | 7.27 | 1.18 | 1.15 | 1.91 | 6.89 | 14.4 | 3.22 | 4.23 | 14.4 | 5.33 | 0.0755 | 3.24 | 6.97 | 2.58 | 5.53 | 2.93 | 4.46
CC(C)(C)OC(=O)NCCCOCCOCCOCCCNC(=O)c1cc(Nc2cc(C3CC3)[nH]n2)nc(Nc2ccc(CC#N)cc2)n1 [5-L] | 6.31 | 0.12 | 0.97 | 1.29 | 6.41 | 13.6 | 1.49 | 2.47 | 14.2 | 6.08 | 0.5 | 2.2 | 5.46 | 1.81 | 6.54 | 1.75 | 4.18
CC(C)(C)OC(=O)NCCOCCOCCOCCOCCC(=O)N1CCN(c2cc(Nc3cc(C4CC4)[nH]n3)nc(Nc3ccc(CC#N)cc3)n2)CC1 [4-L] | 11.3 | 0.51 | -0.09 | -0.0121 | 6.63 | 12 | 2.7 | 6.97 | 14.8 | 5.76 | 0.39 | 7.07 | 8.17 | 1.6 | 6.22 | 0.95 | 4.14
